Entries after “also recorded” stand apart in the source; their conditions may differ.
Test system: bacteria, fungi, and/or yeasts
Type: binding
Settings: microorganism(s) listed as target(s) of the targeting peptide; wrapped target lists given cell by cell

Question: For PF-127 (MLRYLSLFAVGLATGYAWGWIDGLAASLAV), which “Target(s)” value is on record?
Answer: The value was “S. epidermidis, M. luteus, E. coli,; also recorded: P. aeruginosa, C. albicans,; also recorded: MRSA, S. pneumoniae, E. faecalis”.

Question: PF-036 (ILNRLSRIVSNEVTSLIYSLK) was tested. Which “Target(s)” value did it give?
Answer: The value was “S. epidermidis, M. luteus, P. mirabilis,; also recorded: E. coli, C. albicans,; also recorded: MRSA, S. pneumoniae, C. jejuni”.

Question: 1T-294 (YDKIADGVFKIGKRGVL) was tested. Which “Target(s)” value did it give?
Answer: Its value is “T. denticola”.

Question: For 1T-269 (PLYVAAVEKINTAKKH), which “Target(s)” value is on record?
Answer: Its value is “F. nucleatum, S. mutans, S. oralis,; also recorded: S. sanguinis”.

Question: “1T-293 (HVEDCFLLSNARTTAIHGRANPARGEPRTRSE)” was tested. Which “Target(s)” value did it give?
Answer: The value was “A. naeslundii, F. nucleatum, P. gingivalis,; also recorded: S. epidermidis, S. gordonii,; also recorded: S. mitis, S. mutans, S. oralis,; also recorded: S. salivarious, S. sanguinis”.

Question: With PF-039 (MLEEKNKSL) as the substance, how does the “Target(s)” value read?
Answer: Its value is “P. mirabilis, C. jeikeium”.

Question: Which “Target(s)” value does the source give for PF-017 (ESIIE) here?
Answer: The value was “E. coli”.

Question: “1T-249 (VFSVLKHTTWPTRKQSWHDFISILEYSAFFALVIFIFDKLLTLGLAELLKRF)” was tested. Which “Target(s)” value did it give?
Answer: Its value is “F. nucleatum, S. sanguinis”.

Question: Which “Target(s)” value does the source give for PF-131 (RRAAARTKGNRR) here?
Answer: Its value is “S. epidermidis, E. coli, MRSA, C. jeikeium”.

Question: How did the “Target(s)” value turn out when TT-311 (AIFDAMHNL) was run?
Answer: The value was “S. mutans, S. sobrinus”.

Question: Which “Target(s)” value does the source give for PF-002 (NDDAQ) here?
Answer: The value was “yeast and hyphal forms; also recorded: S. epidermidis, P. mirabilis, C. albicans,; also recorded: C. jeikeium, C. jejuni”.

Question: For PF-140 (FHRRVIRASEWALTTRSFSTPLRSAAR), which “Target(s)” value is on record?
Answer: Its value is “S. epidermidis, M. luteus, P. mirabilis,; also recorded: E. coli, P. aeruginosa,; also recorded: C. albicans, MRSA, S. pneumoniae,; also recorded: E. faecalis, C. jeikeium,; also recorded: C. jejuni, M. smegmatis”.

Question: With 1T-302 (IIIILPKIYLVCKTV) as the substance, how does the “Target(s)” value read?
Answer: Its value is “A. naeslundii, P. gingivalis, S. epidermidis,; also recorded: S. gordonii, S. mitis,; also recorded: S. mutans, S. oralis, S. salivarious,; also recorded: S. sanguinis”.

Question: For “1T-291 (DMKIIKLYIKILSFLFIKYCNKKLNSVKLKA)”, which “Target(s)” value is on record?
Answer: The value was “A. naeslundii, F. nucleatum, P. gingivalis,; also recorded: T. denticola, S. mitis,; also recorded: S. mutans, S. oralis”.

Question: Which “Target(s)” value does the source give for “1T-283 (LCTKLEDKQRGRIPAELFIISPIKILERNDAL)” here?
Answer: The value was “A. naeslundii, F. nucleatum, P. gingivalis,; also recorded: T. denticola, S. epidermidis,; also recorded: S. gordonii, S. mitis,; also recorded: S. mutans, S. oralis, S. salivarious,; also recorded: S. sanguinis”.

Question: For PF-636 (LVRLA), which “Target(s)” value is on record?
Answer: Its value is “C. albicans hyphae”.

Question: For PF-034 (EPKKKHFPKMESASSEP), which “Target(s)” value is on record?
Answer: Its value is “M. luteus”.

Question: PF-030 (MTCHQAPTTTHQSNMA) was tested. Which “Target(s)” value did it give?
Answer: Its value is “yeast and hyphal forms; also recorded: S. epidermidis, M. luteus, P. mirabilis,; also recorded: E. coli, P. aeruginosa,; also recorded: C. albicans, MRSA, S. pneumoniae,; also recorded: E. faecalis, C. jeikeium,; also recorded: C. jejuni”.

Question: TT-305 (ARNALNMRDVPVDAAIIGIIDGMDEE) was tested. Which “Target(s)” value did it give?
Answer: The value was “F. nucleatum”.

Same assay, conditions: microorganism(s) that the targeting peptide binds, as listed in Table 2

Question: With PF-785 (MRPQHSPAGKAFVVKKITHEQS) as the substance, how does the “Target(s)” value read?
Answer: The value was “Mycobacteria spp”.

Question: With PF-C062 (PLARATEVVATLFIICSLLLYLTR) as the substance, how does the “Target(s)” value read?
Answer: The value was “A. naeslundii, F. nucleatum, P. gingivalis,; also recorded: S. mutans, T. denticola”.

Question: How did the “Target(s)” value turn out when “PF-S004 (VLLNIFRTLLEFFSPSNAPGAEDVPLPDTQA)” was run?
Answer: The value was “S. epidermidis, MRSA, C. jeikeium”.

Question: PF-C139 (LLASHPERLSLGVFFVYRVLHLLLENT) was tested. Which “Target(s)” value did it give?
Answer: Its value is “A. naeslundii, F. nucleatum, P. gingivalis,; also recorded: S. mutans, T. denticola”.

Question: For PF-C052 (SRFRNGV), which “Target(s)” value is on record?
Answer: The value was “A. naeslundii, F. nucleatum, S. mutans”.

Question: PF-C088 (DIANNILNSVSERLIIA) was tested. Which “Target(s)” value did it give?
Answer: Its value is “A. naeslundii, F. nucleatum, P. gingivalis,; also recorded: S. mutans, T. denticola”.

Same assay, conditions: microorganism(s) the targeting peptide binds, as listed in Table 2

Question: Which “Target(s)” value does the source give for 1T-93 (AMRSVNQA) here?
Answer: The value was “S. epidermidis, S. gordonii, S. mitis,; also recorded: S. mutans, S. oralis, S. sanguinis”.

Question: “1T-223 (NQKMEINSMTSEKEKMLAGHFHNEANFAVIFKYSLFYNFF)” was tested. Which “Target(s)” value did it give?
Answer: Its value is “A. naeslundii, F. nucleatum, P. gingivalis,; also recorded: S. epidermidis, S. gordonii,; also recorded: S. mitis, S. mutans, S. oralis,; also recorded: S. salivarious, S. sanguinis”.

Question: Which “Target(s)” value does the source give for 1T-162 (QKAKEESDRKAAVSYNGFHRVNVVSIPK) here?
Answer: The value was “A. naeslundii, F. nucleatum, P. gingivalis,; also recorded: T. denticola, S. gordonii,; also recorded: S. mitis, S. mutans, S. oralis,; also recorded: S. salivarious, S. sanguinis”.

Question: Which “Target(s)” value does the source give for 1T-222 (RIEASLISAIMFSMFNAIVKFLQK) here?
Answer: Its value is “F. nucleatum, S. sanguinis”.

Question: Which “Target(s)” value does the source give for 1T-142 (FTQGIKRIVLKRLKED) here?
Answer: Its value is “A. naeslundii, F. nucleatum, P. gingivalis,; also recorded: T. denticola, S. gordonii,; also recorded: S. mitis, S. mutans, S. oralis,; also recorded: S. salivarious, S. sanguinis”.

Question: How did the “Target(s)” value turn out when 1T-161 (NKVLQVEVMWDGSVVGRPAGVISIKSSKKG) was run?
Answer: Its value is “A. naeslundii, F. nucleatum, P. gingivalis,; also recorded: S. epidermidis, S. gordonii,; also recorded: S. mitis, S. mutans, S. oralis,; also recorded: S. salivarious, S. sanguinis”.

Question: “1T-217 (MLSNVLSRSVVSPNVDIPNSMVILSPLLISISNYH)” was tested. Which “Target(s)” value did it give?
Answer: The value was “F. nucleatum, S. sanguinis”.

Question: For 1T-129 (YDKYIKYLSIQPPFIVYFI), which “Target(s)” value is on record?
Answer: Its value is “A. naeslundii, P. gingivalis, S. epidermidis,; also recorded: S. gordonii, S. mitis,; also recorded: S. mutans, S. oralis, S. salivarious,; also recorded: S. sanguinis”.

Question: “1T-169 (FARVRRLHQNRILTQPLTNLKYCLRQPIYSD)” was tested. Which “Target(s)” value did it give?
Answer: Its value is “A. naeslundii, F. nucleatum, P. gingivalis,; also recorded: S. epidermidis, S. gordonii,; also recorded: S. mitis, S. mutans, S. oralis,; also recorded: S. salivarious, S. sanguinis”.

Question: How did the “Target(s)” value turn out when 1T-59 (AVGNNLGKDNDSGHRGKKHRKHKHR) was run?
Answer: The value was “S. aureus, S. epidermidis, P. aeruginosa”.

Question: How did the “Target(s)” value turn out when 1T-153 (YIACPGYFY) was run?
Answer: Its value is “A. naeslundii, F. nucleatum, P. gingivalis,; also recorded: S. epidermidis, S. gordonii,; also recorded: S. mitis, S. mutans, S. oralis,; also recorded: S. salivarious, S. sanguinis”.

Question: How did the “Target(s)” value turn out when 1T-46 (FSFKQRVMFRKEVERLR) was run?
Answer: Its value is “S. aureus, S. epidermidis, C. jeikeium,; also recorded: C. xerosis, C. striatum,; also recorded: P. aeruginosa”.

Question: With 1T-47 (VIKISVPGQVQMLIP) as the substance, how does the “Target(s)” value read?
Answer: Its value is “S. mutans, S. epidermidis, P. aeruginosa”.

Question: How did the “Target(s)” value turn out when 1T-201 (KRKHENVIVAEEMRVIKN) was run?
Answer: The value was “S. sanguinis”.

Question: Which “Target(s)” value does the source give for 1T-101 (RLRVGRATDLPLTSFAVGVVRNLPDAPAH) here?
Answer: Its value is “A. naeslundii, P. gingivalis, S. epidermidis,; also recorded: S. gordonii, S. mitis,; also recorded: S. mutans, S. oralis, S. sanguinis”.

Question: How did the “Target(s)” value turn out when 1T-157 (RRFRKTTENREKSKNKKAVLGLSTTSTASY) was run?
Answer: Its value is “A. naeslundii, F. nucleatum, P. gingivalis,; also recorded: T. denticola, S. gordonii,; also recorded: S. mitis, S. mutans, S. oralis,; also recorded: S. salivarious, S. sanguinis”.

Question: 1T-95 (GHLLRVGGRVGGVGGVAGACAQPFGGQ) was tested. Which “Target(s)” value did it give?
Answer: Its value is “S. gordonii, S. mitis, S. mutans,; also recorded: S. oralis, S. sanguinis”.

Question: 1T-81 (AIATGLDIVDGKFDGYLWA) was tested. Which “Target(s)” value did it give?
Answer: Its value is “S. pneumoniae”.

Question: With 1T-32 (VSFLAGWLCLGLAAWRLGNA) as the substance, how does the “Target(s)” value read?
Answer: Its value is “S. mutans”.

Question: For 1T-116 (MILHRRRDR), which “Target(s)” value is on record?
Answer: Its value is “A. naeslundii, P. gingivalis, S. epidermidis,; also recorded: S. gordonii, S. mitis,; also recorded: S. mutans, S. oralis, S. salivarious,; also recorded: S. sanguinis”.

Question: With 1T-66 (DTDCLSRAYAQRIDELDKQYAGIDKPL) as the substance, how does the “Target(s)” value read?
Answer: Its value is “S. mutans, S. aureus, S. epidermidis,; also recorded: C. jeikeium, C. xerosis,; also recorded: C. striatum, P. aeruginosa”.

Question: “1T-215 (VCFKDISVFLSPFRGQEVLFCGKAKHSLIYVIGT)” was tested. Which “Target(s)” value did it give?
Answer: The value was “S. sanguinis”.

Question: Which “Target(s)” value does the source give for 1T-90 (RNVIGQVL) here?
Answer: Its value is “S. gordonii, S. mitis, S. mutans,; also recorded: S. oralis, S. sanguinis”.

Question: How did the “Target(s)” value turn out when “1T-228 (IFKLFEEHLLYLLDAFYYSKIFRRLKQGLYRRKEQPYTQDLFRM)” was run?
Answer: The value was “A. naeslundii, F. nucleatum, P. gingivalis,; also recorded: S. epidermidis, S. gordonii,; also recorded: S. mitis, S. mutans, S. oralis,; also recorded: S. salivarious, S. sanguinis”.
